The values that follow come from publication PMC8318231, “Rate-of-Kill (RoK) assays to triage large compound sets for Chagas disease drug discovery: Application to GSK Chagas Box” (PLoS Neglected Tropical Diseases, 2021).

Where only a bound is given, the exact number is not on record here.

Assay [1] deals with T. cruzi intracellular amastigotes in H9c2 cells. The assay is described as follows: Rate-of-Kill (RoK) high-content imaging assay, amastigotes per cell (AM/CELL) and curve descriptors. Particulars: for ME_24h: 24h; for ME_48h: 48h; for ME_72h: 72h; for tlag_Cmax / t50pct_Cmax / t50%_Cmax: at Cmax; for ME_24h (%): maximum effect at 24 h; for ME_24h (%) / ME_48h (%) / ME_72h (%): RoK assay; for ME_48h (%): maximum effect at 48 h; for ME_72h (%): maximum effect at 72 h; for ME 24h (maximum effect at 24 hours, intracellular amastigotes): maximum percentage of parasite burden reduction reached by any concentration. It is filed as cell-based, Trypanosoma cruzi. More on the design: key to ME_24h / ME_48h / ME_72h: % reduction in parasite burden (cidal response); t50pct_MCC50 / t50pct_Cmax: unit not given here. The method, boiled down:
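H9c2 cardiomyocytes infected with T. cruzi trypomastigotes (MOI 8, 18 h), then compounds tested at 5 μM single shot or 11-point 1/3 dilution from 50 μM. DRAQ5-stained nuclei imaged over a time course. Amastigotes per cell normalised to infected cells at 4 h (0%) and non-infected cells (100%).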

Another assay relates to TcCYP51. Particulars: formerly reported; cited from earlier work.

Turning to `Cn1nccc1-c1cc(OC(CN)c2ccccc2)cnc1-c1ccco1.O=C(O)C(F)(F)F.O=C(O)C(F)(F)F` (stereo not shown) [TCMDC-143221], in assay [1] (figure 5), the ME_24h is recorded as -243.084, the ME_48h is recorded as -97.9255, the ME_72h worked out at 30.5438 and the t50pct_Cmax is listed as 72. Moreover, in assay [1] (figure 5), the tlag_Cmax amounted to 24, the MCC50 was 50 µM and the MCCE came to 1.852. The “MCCE” value in assay [1] (RoK curve descriptor) was 1.9 µM. For the same molecule, the “AM/CELL NORM” value in assay [1] (Time 4, sheet figure 4 A) is recorded as 21.0268. For the same molecule, the “AM/CELL NORM” value in assay [1] (Time 24, sheet figure 4 A) was -310.615. Besides, in assay [1] (Time 48, sheet figure 4 A), the “AM/CELL NORM” value is recorded as -207.349. The “AM/CELL NORM” value in assay [1] (Time 72, sheet figure 4 A) turned out to be 0.471. For the same molecule, in assay [1], the “tlag_Cmax” value worked out at 24.0 h, the “ME_24h (%)” value is on record as -243.1%, the “ME_48h (%)” value was -97.9% and the “ME_72h (%)” value came out at 30.5%. The “ME 24h (maximum effect at 24 hours, intracellular amastigotes)” value (“ME 24h” for short) in assay [1] is on record as -243.084%. In assay [1] (at MCC50, figure 5), this molecule displayed a t50pct_MCC50 of 72 and a tlag_MCC50 of 72. Further, the “CYP51 pIC50” value in the assay with TcCYP51 was 7.2.
Turning to `CS(=O)(=O)c1ccc(CC(=O)Nc2nc(-c3ccc(Cl)s3)cs2)cc1` [TCMDC-143224], in assay [1] (figure 5), the ME_24h is -50.7576, the ME_48h was -167.826, the ME_72h is 53.6478 and the t50pct_Cmax was found to be 72. In assay [1] (figure 5), this molecule yielded a tlag_Cmax of 48 and an MCCE of 1.852. Also, in assay [1] (RoK curve descriptor), the “MCC50” value is 16.7 µM and the “MCCE” value is recorded as 1.9 µM. In addition, the “AM/CELL NORM” value in assay [1] (Time 4, sheet figure 4 A) was -3.952. Moreover, in assay [1] (Time 24, sheet figure 4 A), the “AM/CELL NORM” value was -61.4068. Further, the “AM/CELL NORM” value in assay [1] (Time 48, sheet figure 4 A) was -205.24. The “AM/CELL NORM” value in assay [1] (Time 72, sheet figure 4 A) was -9.589. For the same molecule, in assay [1], the “tlag_Cmax” value came out at 48.0 h, the “ME_24h (%)” value was -50.8%, the “ME_48h (%)” value was -167.8% and the “ME_72h (%)” value is recorded as 53.7%. Also, the “ME 24h” value in assay [1] was -50.7576%. For the same molecule, in assay [1] (at MCC50), the “t50%_MCC50” value was 72.0 h and the “tlag_MCC50” value was determined as 48.0 h. In assay [1] (at MCC50, figure 5), this molecule had a t50pct_MCC50 of 72 and a tlag_MCC50 of 48. Further, the MCC50 in assay [1] (figure 5, in µM) was 16.6667. In the assay on TcCYP51, the “CYP51 pIC50” value is below 4.
Consider `Cl.O=c1cc(NCCCNC2CCOc3c(I)cc(Cl)cc32)[nH]c2ccccc12` (stereo not shown) [TCMDC-139489], for which, in assay [1], the “ME (maximum effect) in RoK assay (in words)” value is “high ME at 24 hours and 72 hours”; the “tlag (in words)” value is “short tlag times”; the “t50%_Cmax” value is 48.0 h; the “tlag_Cmax” value was 4.0 h. For the same molecule, in assay [1], the “ME_24h (%)” value turned out to be 37.7%; the “ME_48h (%)” value turned out to be 64.7%; the “ME_72h (%)” value worked out at 58.9%; the “ME 24h” value stood at 37.6706%. For the same molecule, in assay [1] (figure 5), the ME_24h came to 37.6706, the ME_48h is 64.7005, the ME_72h amounted to 58.8587 and the t50pct_Cmax was 48. Further, in assay [1] (figure 5), the tlag_Cmax was 4 and the MCCE was determined as 0.2058. Also, in assay [1] (RoK curve descriptor), the “MCC50” value is 5.6 µM and the “MCCE” value was 0.2 µM. Further, the “AM/CELL NORM” value in assay [1] (Time 4, figure 4 A) is on record as 5.191. Besides, the “AM/CELL NORM” value in assay [1] (Time 24, figure 4 A) worked out at 37.6706. Also, the “AM/CELL NORM” value in assay [1] (Time 48, figure 4 A) is 64.7005. In assay [1] (Time 72, figure 4 A), the “AM/CELL NORM” value is 58.8587. In addition, in assay [1] (at MCC50), the “t50%_MCC50” value stood at 72.0 h and the “tlag_MCC50” value came out at 4.0 h. In addition, in assay [1] (at MCC50, figure 5), the t50pct_MCC50 was 72 and the tlag_MCC50 is recorded as 4. In assay [1] (figure 5, in µM), this molecule registered an MCC50 of 5.556. The “CYP51 pIC50” value in the assay with TcCYP51 is 4.8.
On to `O=S(=O)(c1cccc(CSc2nnc(-c3ccc4c(c3)OCO4)o2)c1)N1CCOCC1` [TCMDC-143197], for which, in assay [1] (figure 5), the ME_24h is given as -16.5303, the ME_48h was found to be 13.4442, the ME_72h came to 33.635 and the t50pct_Cmax stood at 72. In assay [1] (figure 5), this molecule registered a tlag_Cmax of 4, an MCC50 of 50 µM and an MCCE of 0.06859. Moreover, the “MCCE” value in assay [1] (RoK curve descriptor) turned out to be 0.07 µM. In addition, the “AM/CELL NORM” value in assay [1] (Time 4, sheet figure 4 A) was -18.4264. Moreover, in assay [1] (Time 24, sheet figure 4 A), the “AM/CELL NORM” value is -16.5303. Further, in assay [1] (Time 48, sheet figure 4 A), the “AM/CELL NORM” value is listed as -6.567. Moreover, the “AM/CELL NORM” value in assay [1] (Time 72, sheet figure 4 A) stood at 29.0194. For the same molecule, in assay [1], the “tlag_Cmax” value came out at 4.0 h, the “ME_24h (%)” value was -16.5%, the “ME_48h (%)” value came to 13.4% and the “ME_72h (%)” value is given as 33.6%. The “ME 24h” value in assay [1] is recorded as -16.5303%. Besides, in assay [1] (at MCC50, figure 5), the t50pct_MCC50 was 72 and the tlag_MCC50 stood at 72. The “CYP51 pIC50” value in the assay with TcCYP51 is 4.9.
As to `COc1ccc(S(=O)(=O)Nc2ccccc2OC)cc1NC(=O)CCCc1c[nH]c2ccccc12` [TCMDC-143256], in assay [1] (figure 5), the ME_24h is recorded as -69.6887, the ME_48h turned out to be 10.9628, the ME_72h came out at 75.3535 and the t50pct_Cmax was 72. In assay [1] (figure 5), the tlag_Cmax worked out at 24 and the MCCE amounted to 1.852. Moreover, in assay [1] (RoK curve descriptor), the “MCC50” value is 5.6 µM and the “MCCE” value is given as 1.9 µM. In addition, the “AM/CELL NORM” value in assay [1] (Time 4, sheet figure 4 A) is recorded as 3.221. Moreover, in assay [1] (Time 24, sheet figure 4 A), the “AM/CELL NORM” value is recorded as -34.0663. Besides, the “AM/CELL NORM” value in assay [1] (Time 48, sheet figure 4 A) was 12.7734. The “AM/CELL NORM” value in assay [1] (Time 72, sheet figure 4 A) stood at 63.1728. In assay [1], the “t50%_Cmax” value was determined as 72.0 h, the “tlag_Cmax” value is 24.0 h, the “ME_24h (%)” value is given as -69.7% and the “ME_48h (%)” value is recorded as 11.0%. Moreover, in assay [1], the “ME_72h (%)” value was found to be 75.4% and the “ME 24h” value was -34.0663%. Besides, in assay [1] (at MCC50), the “t50%_MCC50” value amounted to 72.0 h and the “tlag_MCC50” value is 24.0 h. In assay [1] (at MCC50, figure 5), this molecule displayed a t50pct_MCC50 of 72 and a tlag_MCC50 of 24. In assay [1] (figure 5, in µM), this molecule yielded an MCC50 of 5.556. In addition, in the assay on TcCYP51, the “CYP51 pIC50” value is recorded as below 4.
For the molecule `FC(F)(F)c1cc(C2CCCN(Cc3c[nH]c4ccccc34)C2)nc2ncnn12.O=C(O)C(O)C(O)C(=O)O` (stereo not shown) [TCMDC-143311], in assay [1] (figure 5), the ME_24h is reported as 20.357, the ME_48h came to 59.0796, the ME_72h stood at 83.5796 and the t50pct_Cmax worked out at 48. For the same molecule, in assay [1] (figure 5), the tlag_Cmax stood at 4, the MCC50 was determined as 50 µM and the MCCE is recorded as 16.6667. In assay [1] (RoK curve descriptor), the “MCC50” value is on record as 50.0 µM and the “MCCE” value was 16.7 µM. Further, the “AM/CELL NORM” value in assay [1] (Time 4, sheet figure 4 A) is -4.224. The “AM/CELL NORM” value in assay [1] (Time 24, sheet figure 4 A) came to 20.357. In addition, the “AM/CELL NORM” value in assay [1] (Time 48, sheet figure 4 A) is on record as 59.0796. The “AM/CELL NORM” value in assay [1] (Time 72, sheet figure 4 A) is given as 83.5796. In assay [1], the “t50%_Cmax” value was 48.0 h, the “tlag_Cmax” value is 4.0 h, the “ME_24h (%)” value came out at 20.4% and the “ME_48h (%)” value turned out to be 59.1%. For the same molecule, in assay [1], the “ME_72h (%)” value is 83.6% and the “ME 24h” value is 20.357%. Besides, in assay [1] (at MCC50), the “t50%_MCC50” value was determined as 48.0 h and the “tlag_MCC50” value was determined as 4.0 h. Also, in assay [1] (at MCC50, figure 5), the t50pct_MCC50 is 48 and the tlag_MCC50 is 4.
